Among the data in the METLIN SMRT retention time set (Domingo-Almenara et al. 2019) are RP-LC retention time values, retold here.

Molecules are shown by their SMILES.

This series in a line: gradient 5% acetonitrile 3 min, to 50% in 2 min, to 85% in 15 min, held 3 min, 100 µL/min. Conditions: column: Zorbax Extend-C18 2.1 x 50 mm; eluents: water / acetonitrile, 0.1% formic acid. The essentials:
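Retention time was recorded from adduct peaks, which were picked computationally and each inspected manually. Pure standards ran in mixtures of ~100 molecules on HPLC coupled to a quadrupole time-of-flight mass spectrometer, in positive and negative ionization mode, through a Zorbax Extend-C18 column (2.1 × 50 mm, 1.8 μm) at 100 μL/min. Eluents were water and acetonitrile, each with 0.1% formic acid.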
Compound `CCOC(=O)Nc1nc(CC(=O)NCCc2c[nH]c3ccccc23)cs1` gave an RP-LC retention time of 680 s.
`CC(C)N1C(=O)c2cccnc2Sc2cc(NC(=O)Cc3ccc(Cl)cc3)ccc21` showed an RP-LC retention time of 954 s.
Under `COC(=O)c1ccc(NC(=O)N2[C@H]3CC[C@@H]2c2cnc(C)nc2C3)cc1` stands 653 s; under `CCC(C)NC(=O)C1c2ccccc2CC(=O)N1C` (centres undefined), 658 s; under `CCCCCC(=O)N1CCCCC1`, 909 s.
`CCOC(=O)C1CCCN(C(=O)c2ccc(SCCN3CCOCC3)nc2)C1` (centres undefined) displayed an RP-LC retention time of 616 s.
Under `COc1ccc(CNC(=O)c2ccc(N3CCCS3(=O)=O)cc2)cc1OC` stands 652 s; under `COC(=O)CNC(=O)N1c2ccccc2CC1c1nc(C2CC2)no1` (centres undefined), 815 s.
Compound `O=C(Cn1ncc2c(N3CCN(c4ccccn4)CC3)ncnc21)NCc1ccc(F)c(Cl)c1` had an RP-LC retention time of 628 s.
Next, `O=C(COc1ccc(F)c(F)c1)NCC1CCOCC1`: 719 s.
Under `Cc1nn(CC(=O)N2CCCCCC2)c(=O)c2c(-n3cccc3)n(-c3ccccc3)nc12` stands 978 s.
Under `CCCNC(=O)Cn1cnc2sc(C(=O)N3CC(C)CC(C)C3)c(C)c2c1=O` (centres undefined) stands 779 s.
`Cc1ccc(Cl)cc1-n1ncc2c(=O)n(Cc3nc(-c4cccc(F)c4)no3)cnc21` returned an RP-LC retention time of 1210 s.
Consider `COc1ccc(Cl)cc1NC(=O)N1CCCC1c1nc(-c2ccccc2OC)no1` (centres undefined), for which the RP-LC retention time was found to be 1010 s.
Under `Cc1ccc(N(C)C(=O)CN2C(=O)CCCc3cc(S(=O)(=O)N4CCCCC4)ccc32)cc1` stands 976 s; under `O=c1ccn(-c2ccc(Cl)cc2)nc1-c1nc(-c2cccc(F)c2)no1`, 954 s; under `C[C@H]1CN(C(=O)c2ccc(C#N)cc2)C[C@@H]1c1nc(-c2cccnc2)no1`, 717 s.
Under `O=C(c1cnc[nH]1)N1CC(F)(F)C[C@H]1c1nc(C2CC2)no1` stands 630 s.
Under `Cc1ccc(C)c2sc(NC(=O)c3cccc(N4C(=O)CCC4=O)c3)nc12` stands 852 s.
Turning to `CCC(C)NC(=O)c1cnn(-c2ccc(-c3nc(C(C)(C)C)no3)cn2)c1C` (centres undefined), the RP-LC retention time was 1050 s.
In turn, `COc1ccc(Cl)cc1NC(=O)C1CCCN(c2ncnc3c2nc2n3CCCCC2)C1` (centres undefined) gave an RP-LC retention time of 934 s.
In turn, `CC(C)CNC(=O)c1nc2cccnc2n(C)c1=O` showed an RP-LC retention time of 701 s.
Under `CCn1c(=O)sc2cc(S(=O)(=O)N3CCC(C(=O)NCC(C)c4ccccc4)CC3)ccc21` (centres undefined) stands 929 s.
Next, `COC(=O)c1ccc(NC(=O)Cn2cccc(-c3nc(-c4ccc(OC)c(OC)c4)no3)c2=O)cc1`: 1010 s; `COCCCn1c(C)cc(C(=O)NCC2Cn3cccc3C(=O)N2C)c1C` (centres undefined): 666 s.
As to `COc1ccc(NC(=O)C2CCN(S(=O)(=O)c3ccc4c(c3)NC(=O)CO4)CC2)cc1OC`, the RP-LC retention time is 715 s.
Next, `CCNc1cc(N2CCC(CCC(=O)N3CCN(C(C)=O)CC3)CC2)ncn1`: 562 s.
Consider `CCc1cccc(NC(=O)C2CCN(C(=O)C3Sc4ccccc4NC3=O)CC2)c1` (centres undefined), for which the RP-LC retention time turned out to be 762 s.
Next, `Cc1cccc(N2CCN(S(=O)(=O)c3cc(-c4cc(C(F)(F)F)[nH]n4)sc3C)CC2)c1C`: 1290 s; `O=C(NCCCc1ccccc1)C1CCCN(c2nc3ccsc3c(=O)n2-c2ccc(F)cc2)C1` (centres undefined): 951 s.
Compound `CCOc1nn(CC)cc1-c1nnc(SCC(=O)N2CCCc3ccccc32)n1CC` returned an RP-LC retention time of 734 s.
For the compound `CCC(=O)N1CCc2c(C(=O)NCc3ccc4c(c3)OCO4)cccc21`, the RP-LC retention time came to 718 s.
Under `CCc1ccccc1NC(=O)CSc1cc(N2CCN(c3ccc(OC)cc3)CC2)ncn1` stands 1010 s; under `COc1ccc(S(=O)(=O)N2CCCC(C(=O)Nc3cccc(C)c3)C2)cc1Cl` (centres undefined), 1060 s.
`COc1ccccc1CNC(=O)CN1CCCC1=O` showed an RP-LC retention time of 631 s.
In turn, `CCCn1ncc(N2CCC(C(=O)NCc3cccs3)CC2)cc1=O` showed an RP-LC retention time of 686 s.
In the case of `Cc1nc(N2CCOCC2)c2c(C(=O)Nc3ccc(Br)cc3C)c(C)oc2n1`, the RP-LC retention time stood at 909 s.
Under `COc1cccc2c1ccn2CCNC(=O)C1CC(=O)N(c2n[nH]c3ccccc23)C1` (centres undefined) stands 722 s.
Under `O=C(NC1CCCCC1)C1CCN(Cc2cc3ccccc3n2Cc2cccc(Cl)c2)CC1` stands 847 s; under `CCn1cc(C(=O)Nc2ccc(F)c(Cl)c2)c2cccnc21`, 965 s; under `CCC(C(=O)Nc1ccc2ncnc(N3CCCC3)c2c1)c1ccccc1` (centres undefined), 703 s.
Under `Cc1cc(C)n(-c2nc(-c3ccccc3)cc(=O)n2CC(=O)N2CCCc3ccccc32)n1` stands 1040 s; under `CC(C)(C)NC(=O)NC1CCN(C(=O)c2ccccc2)C1` (centres undefined), 683 s.
The compound `CCCNC(=O)C1CCN(c2ccc(SCC(=O)Nc3cc(F)cc(F)c3)nn2)CC1` gave an RP-LC retention time of 665 s.
As for `COc1ccc(-c2csc(C)n2)cc1S(=O)(=O)N1CCN(c2ccccc2)CC1`, the RP-LC retention time turned out to be 1060 s.
`Cc1ccn2cc(-c3ccc(NC(=O)c4ccc(F)cc4)cc3)nc2n1`: the RP-LC retention time was found to be 648 s.
With `O=C(NCc1ccccc1)N1CCN(Cc2nc3cc(Cl)ccc3o2)CC1`, the RP-LC retention time was 717 s.
`Cc1nc(N2CCN(c3ncccn3)CC2)nc2c1C(=O)CC(c1ccccc1O)C2` (centres undefined) gave an RP-LC retention time of 969 s.
Under `CSc1cccc(NC(=O)N2CCN(Cc3nc4cc(C)ccc4o3)CC2)c1` stands 776 s; under `Cc1ccc(-c2ccc(S(=O)(=O)N3CCCC3)cc2)cc1`, 1070 s.
With `CCOc1ccc2nc(NC(=O)CCN3C(=O)C4C5C=CC(C5)C4C3=O)sc2c1` (centres undefined), the RP-LC retention time worked out at 834 s.
Next, `CCN(C(=O)C1CCN(C(=O)c2ccc(F)cc2)CC1)C1CCCCC1`: 885 s; `Cc1ccc(-c2cn3ccccc3n2)cc1NS(=O)(=O)c1ccc(F)cc1`: 665 s.
Next, `Cc1noc(COC2CCN(C(=O)c3ccc4c(c3)OCO4)CC2)n1`: 702 s.
In turn, `Cc1ccc(S(=O)(=O)Cc2ccc(C(=O)N3CCN(c4ccccn4)CC3)o2)cc1` registered an RP-LC retention time of 606 s.
`Cc1cccc2nnc(N3CCN(C(=O)c4cc(F)cc(F)c4)CC3)n12` gave an RP-LC retention time of 669 s.
Next, `O=C(Cn1ccnc1)N1CCCC(OCc2nc(C3CC3)no2)C1` (centres undefined): 580 s.
Under `CCCN1CCn2cc(C(=O)NCc3ccc(C(C)C)cc3)nc2C1` stands 665 s; under `O=C(Nc1ccc(N2CCN(c3ccccc3)C2=O)nc1)c1ccc(Br)o1`, 892 s.
The compound `CC(=O)N1C[C@@H]2CCCN3CCC[C@@H]([C@H]23)[C@H]1CCCC(=O)NCCC(C)C` yielded an RP-LC retention time of 583 s.
Next, `CC1CCN(c2nc3c(c(=O)n(Cc4ccccc4Cl)c(=O)n3C)n2C)CC1`: 1170 s; `CC(C)NC(=O)c1ccnn1C`: 604 s.
Next, `COc1ccc(-n2nc3c(N4CCCC(C(=O)NCCCc5ccccc5)C4)nnc(C)c3c2C)cc1` (centres undefined): 777 s; `O=C(C1CCN(S(=O)(=O)c2ccc(-c3ccn[nH]3)o2)CC1)N1CCN(c2ccccn2)CC1`: 594 s; `O=C(Cn1nc2c3cc(-c4ccccc4)nn3ccn2c1=O)Nc1ccc(Br)cc1F`: 923 s.
Under `Cc1ccc(NS(=O)(=O)c2cc3n(c2)CCCNC3=O)c(Cl)c1` stands 686 s.
`Clc1cccc(-c2noc3ncnc(N4CCN(c5ccccn5)CC4)c23)c1`: the RP-LC retention time came out at 716 s.
In the case of `Cc1cccc2c1NC(=O)C2(O)CC(=O)c1ccccc1Cl` (centres undefined), the RP-LC retention time came out at 729 s.
Compound `CC(C)n1c(SCC(=O)N(C)C)nnc1-c1ccc2c(c1)OCCCO2` gave an RP-LC retention time of 691 s.
Under `COc1ccc(C2C(C(=O)NCCN(C)C)c3ccccc3C(=O)N2C)cc1OC` (centres undefined) stands 700 s; under `Cc1ccc(C(=O)NCC(=O)N2CCCc3ccccc32)s1`, 830 s; under `Cc1ccc(S(=O)(=O)N2CC(Cc3nncn3C3CCCC3)C2)cc1Cl`, 795 s.
As for `CCc1nccn1Cc1noc(-c2ccc(C)cc2)n1`, the RP-LC retention time came out at 648 s.
Next, `COc1ccc(-c2nc3cccc(C)n3c2Nc2ccccc2C)cc1`: 773 s.
Under `Cc1cccc(NC(=O)CN2C(=O)CCCc3cc(S(=O)(=O)N4CCCCC4)ccc32)c1` stands 958 s.
`COc1cccc(C2Cn3nnc(-c4nc(-c5cccc(Cl)c5)no4)c3CO2)c1` (centres undefined) displayed an RP-LC retention time of 1250 s.
As to `CSc1ccccc1C(=O)NCC1CCN(C(=O)c2ccccc2F)CC1`, the RP-LC retention time is 704 s.
Next, `O=C(NC1CC1)[C@@H]1C[C@H](Oc2ccccc2)CN1C(=O)C1CCC1`: 735 s.
Under `O=C(CCc1nc2ccccc2n(CC(=O)Nc2ccc3c(c2)OCO3)c1=O)NCc1ccccc1` stands 797 s.
